What all share (parameters): species or system Wistar Han rat
Assay [1] concerns dopamine (DA) in the dorsomedial striatum (DMS). In words: In vivo microdialysis of dopamine in dorsomedial striatum (Example 1). Here is the method: (§1) 95 adult male Wistar Han rats (Envigo, Horst, Netherlands) were used in all experiments, weighing 280 to 350 g at the time of surgery (corresponding to approximately 9-10 weeks of age). The animals were housed in groups of five per cage (55×35×20 cm) at constant room temperature (22° C.), relative humidity (65%), and regular dark-light conditions (lights on at 7 AM and off at 7 PM). […] The animals were allowed to acclimate to the animal facilities for at least one week before surgery. This study was approved by the Ethics Committee for Animal Experiments, Gothenburg, Sweden and conducted according to national laws and guidelines for the care and use of laboratory animals.
(§2) Nicotine ((−)-nicotine hydrogen tartrate salt, Sigma, Stockholm, Sweden), 95% ethanol (Kemetyl AB, Stockholm, Sweden), varenicline (6,7,8,9-tetrahydro-6,10-methano-6H-pyrazino[2,3-h][3]benzazepine tartrate; provided by Pfizer Global Research and Development) and N-methyl-N-[(3R)-3-phenyl-3-[4-(trifluoromethyl) phenoxy]propyl]-glycine (Org 24598) (Tocris, Bristol, United Kingdom) were dissolved in physiological saline solution (0.9% NaCl) and administered subcutaneous (nicotine and varenicline) or intraperitoneal (ethanol and Org 24598) at a volume of 2 ml/kg (nicotine and varenicline), 5 ml/kg for EtOH and 4 ml/kg for Org 24598. The pH of the nicotine solution was neutralized with bicarbonate to approximately 7.2-7.4.
(§3) The microdialysis experiments were performed as previously described (Clarke, et al., 2014, Increase in nucleus accumbens dopamine levels following local ethanol administration is not mediated by acetaldehyde, Alcohol Alcohol 49, 498-504; Danielsson et al., 2021, Differential dopamine release by psychosis-generating and non-psychosis-generating addictive substances in the nucleus accumbens and dorsomedial striatum, Transl Psychiatry 11, 472). Animals were anaesthetized with isoflurane before being mounted into a stereotaxic instrument (David Kopf Instruments, AgnTho's, Stockholm, Sweden). The animals were equipped with either a standard in-house made single probe placed in the nAc (A/P +1.85, M/L −1.2, D/V −7.8) or the DMS (A/P+1.2, M/L −1.4, D/V −5.5) (Paxinos, 2007, The rat brain in stereotaxic coordinates. Amsterdam u.a.: Elsevier, Academic Press, Amsterdam), or a custom-made dual microdialysis probe (FIG. 1), which permits simultaneous sampling from both the nAc and DMS. Two additional holes were drilled in the skull in order to allow anchoring screws to be fastened, and the probe and screws were set in place using Harvard cement (DAB Dental AB, Stockholm, Sweden). The animals were then placed in single housing cages and allowed to recover for 48 h prior to the microdialysis experiment.
On the day of the experiment, the animals were connected to a microperfusion pump (U-864 Syringe Pump, AgnTho's, Sweden) via a swivel, which allowed the animals to move around the cage freely. […]
(§4) Microdialysis samples were analyzed as previously described for DA (Clarke, et al., 2014, Increase in nucleus accumbens dopamine levels following local ethanol administration is not mediated by acetaldehyde, Alcohol Alcohol 49, 498-504). In brief, DA content was analyzed using high performance liquid chromatography (HPLC) with electrochemical detection, using an external standard containing 3.25 fmol/μl of DA to identify DA peaks and quantify DA content. The chromatograms were analyzed using the software Thermo Scientific Chromelion Chromatography System (CDS) Chromelion 7.

The test system of assay [2] is dopamine (DA) in the nucleus accumbens (nAc). In words: In vivo microdialysis of dopamine in nucleus accumbens (Example 1). The conditions noted are these: for DA effect nAc vs DMS (brain region comparison over time): dual probe, Org 24598 9 mg/kg, varenicline 1.5 mg/kg. As for the experimental part: as §1, §2, §3
On the day of the experiment, the animals were connected to a microperfusion pump (U-864 Syringe Pump, AgnTho's, Sweden) via a swivel, which allowed the animals to move around the cage freely. During the entire experiment, the probes were perfused with Ringer solution at a rate of 2 μl/min, and dialysate samples were collected every 20 min. Baseline sampling commenced after a 2-hour period, during which a balanced fluid exchange was established. Once at least three consecutive stable DA values were obtained (±10%), pharmacological treatment was administered, followed by a total of 180 minutes of sampling.
as §4

Assay [3] shares this test system. The experiment in a line: In vivo microdialysis of dopamine in nucleus accumbens (Example 2). As for the experimental part:
(§5) Adult male Wistar Han rats (Envigo, Horst, Netherlands) were used, weighing approximately 320 g at the time of surgery (corresponding to approximately 9-10 weeks of age). The animals were housed in groups of five per cage (55×35×20 cm) at constant room temperature (22° C.), relative humidity (65%), and regular dark-light conditions (lights on at 7 AM and off at 7 PM). All animals had ad libitum access to standard rat feed (Harlan Teklad, Envigo, Europe) and tap water. The animals were allowed to acclimate to the animal facilities for at least one week before surgery. This study was approved by the Ethics Committee for Animal Experiments, Gothenburg, Sweden and conducted according to national laws and guidelines for the care and use of laboratory animals.
(§6) The microdialysis experiments were performed as previously described (Clarke et al., 2014; Danielsson et al., 2021). […]
(§7) Microdialysis samples were analyzed as previously described for DA (Clarke et al., 2014). In brief, DA content was analyzed using high performance liquid chromatography (HPLC) with electrochemical detection, using an external standard containing 3.25 fmol/μl of DA to identify DA peaks and quantify DA content. The chromatograms were analyzed using the software Thermo Scientific Chromelion Chromatography System (CDS) Chromelion 7.

Assay [4] concerns dopamine (DA) in the dorsomedial striatum (DMS). The experiment in a line: In vivo microdialysis of dopamine in dorsomedial striatum (Example 2). The conditions noted are these: 12 mg/kg i.p., dual probe, same Wistar rat, FIG. 5. Here is the method:
as §5, §6, §7

The mark [5] stands for this setting: single probe microdialysis, t=0-180 min, EtOH 2.5 g/kg intraperitoneal, nicotine 0.36 mg/kg subcutaneous, alone or combined.
The mark [6] stands for this setting: single probe microdialysis, t=0-180 min, EtOH 2.5 g/kg intraperitoneal, nicotine 0.36 mg/kg subcutaneous, alone or combined, listed as ethanol.
Where [7] appears, read: dual probe microdialysis, 0-180 min, Org 24598 9 mg/kg intraperitoneal, varenicline 1.5 mg/kg subcutaneous, alone or combined.
The mark [8] stands for this setting: two-way ANOVA, 0-180 min, alone or combined.

“Also recorded” adds a separate entry of the source.

Consider `CN1CCCC1c1cccnc1.O=C(O)C(O)C(O)C(=O)O` (single isomer, unassigned; (-)) [nicotine, (−)-nicotine hydrogen tartrate salt], for which, in assay [1] (rat, in vivo), the “effect on DMS DA vs vehicle (AUC)” value was “elevated DA significantly”. Further, in assay [2] (rat, in vivo), the “DA elevation nAc vs DMS (brain region comparison over time)” value is on record as “no effect by brain region on the DA elevation”; the “effect on nAc DA vs vehicle (AUC)” value was “significant and substantial increase in accumbal DA”.

For the compound `CCO` [EtOH, ethanol], the “effect on DMS DA vs vehicle (AUC)” value is “significantly increased DA over time” in assay [1] (setting [5]) and “elevated DA significantly” in assay [1] (setting [6]). For the same compound, the “effect on nAc DA vs vehicle (AUC)” value was “transient increase in DA” in assay [2] (setting [5]) and “not statistically significant” in assay [2] (setting [6]). Besides, the “DA elevation nAc vs DMS (brain region comparison over time)” value in assay [2] (two-way ANOVA, t=0-180 min, EtOH 2.5 g/kg, nicotine 0.36 mg/kg, alone or combined) is “did not produce statistically different DA elevations in the nAc and the DMS”.

With `CN(CC[C@@H](Oc1ccc(C(F)(F)F)cc1)c1ccccc1)CC(=O)O` [Org 24598, N-methyl-N-[(3R)-3-phenyl-3-[4-(trifluoromethyl)phenoxy]propyl]-glycine], the “effect on DMS DA vs vehicle (AUC)” value in assay [1] (setting [7]) is given as “minor DA increase”. In addition, the “effect on nAc DA vs vehicle (AUC)” value in assay [2] (setting [7]) is “no significant effect; also recorded: minor DA increase”. Also, the “DA effect nAc vs DMS (brain region comparison over time)” value in assay [2] (setting [8]) was “did not differ between the two areas”.

`COc1cc(C(=O)NCC2(N(C)C)CCCC2)cc(OC)c1OCc1ccccc1.Cl` [Org 25543]: the “effect on dopamine levels in nAc” value in assay [3] (12 mg/kg i.p., dual probe, same Wistar rat, FIG. 5) is on record as “increase in dopamine levels in nAc”. Besides, the “effect on dopamine in the nAc” value in assay [3] (4 or 8 mg/kg i.p., systemic administration, FIG. 4) is reported as “dose-dependent increase of dopamine in the nAc”. The “effect on dopamine levels in DMS” value in assay [4] is recorded as “reduction in dopamine levels in DMS”.

On to `c1cnc2cc3c(cc2n1)[C@@H]1CNC[C@H]3C1` [varenicline, 7,8,9,10-tetrahydro-6,10-methano-6H-pyrazino[2,3-h][3]benzazepine], for which the “effect on DMS DA vs vehicle (AUC)” value in assay [1] (setting [7]) was “small but significant elevation of DA over time”. Also, the “DA effect nAc vs DMS (brain region comparison over time)” value in assay [2] (setting [8]) is reported as “did also not differ between brain regions”.

The values are drawn from US20250302845A1, “SELECTIVE DOPAMINE INCREASE” (SOBRERA PHARMA AB, priority 2022, published 2025).
